# Data from ChEMBL document CHEMBL1137565, “Discovery of novel 8-azoniabicyclo[3.2.1]octane carbamates as muscarinic acetylcholine receptor antagonists” (Bioorg Med Chem Lett, 2007).
# What was measured:
# [1] = target: T1, Muscarinic acetylcholine receptor M2 (Homo sapiens, UniProt P08172); experiment: Antagonist activity at cloned muscarinic M2 receptor expressed in CHO cells by measuring calcium mobilization; type: functional, cell-based
# T1 sequence (P08172 whole entry): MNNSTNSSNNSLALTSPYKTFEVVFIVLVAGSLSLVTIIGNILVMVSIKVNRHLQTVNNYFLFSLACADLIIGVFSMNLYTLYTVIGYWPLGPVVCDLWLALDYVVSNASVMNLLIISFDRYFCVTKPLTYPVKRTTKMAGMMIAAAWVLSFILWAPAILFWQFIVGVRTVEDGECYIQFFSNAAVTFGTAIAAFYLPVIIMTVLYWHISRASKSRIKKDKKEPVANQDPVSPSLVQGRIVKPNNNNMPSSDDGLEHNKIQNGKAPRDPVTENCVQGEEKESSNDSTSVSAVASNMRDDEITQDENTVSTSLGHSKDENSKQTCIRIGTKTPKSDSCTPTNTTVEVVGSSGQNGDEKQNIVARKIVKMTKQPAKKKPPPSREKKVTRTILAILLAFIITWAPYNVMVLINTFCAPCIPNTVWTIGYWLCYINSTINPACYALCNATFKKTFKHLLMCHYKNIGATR
# [2] = target: T2, Muscarinic acetylcholine receptor M1 (Homo sapiens, UniProt P11229); experiment: Antagonist activity at cloned muscarinic M1 receptor expressed in CHO cells by measuring calcium mobilization; type: functional, cell-based
# T2 sequence (P11229 whole entry): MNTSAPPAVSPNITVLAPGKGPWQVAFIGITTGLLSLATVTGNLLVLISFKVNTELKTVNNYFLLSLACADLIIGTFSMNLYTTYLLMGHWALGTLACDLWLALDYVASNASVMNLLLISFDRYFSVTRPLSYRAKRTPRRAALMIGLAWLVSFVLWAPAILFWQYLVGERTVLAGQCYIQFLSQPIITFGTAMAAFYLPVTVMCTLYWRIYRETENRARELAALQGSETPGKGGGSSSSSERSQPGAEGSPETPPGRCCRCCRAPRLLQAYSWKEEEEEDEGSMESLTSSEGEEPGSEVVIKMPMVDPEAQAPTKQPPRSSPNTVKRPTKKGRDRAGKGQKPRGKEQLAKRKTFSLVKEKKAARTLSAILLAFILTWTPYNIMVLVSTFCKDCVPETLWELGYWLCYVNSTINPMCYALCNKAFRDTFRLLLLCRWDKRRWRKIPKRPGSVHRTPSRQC
# [3] = target: Muscarinic acetylcholine receptor M3 (Homo sapiens, UniProt P20309); experiment: Antagonist activity at cloned muscarinic M3 receptor expressed in CHO cells by measuring calcium mobilization; type: functional, cell-based
# [4] = target: Muscarinic acetylcholine receptor M1 and M3 (Homo sapiens) (UniProt P20309+P11229); experiment: Selectivity for cloned muscarinic M3 receptor over cloned muscarinic M1 receptor
# [5] = target: Muscarinic acetylcholine receptors; M2 & M3 (Homo sapiens) (UniProt P20309+P08172); experiment: Selectivity for cloned muscarinic M3 receptor over cloned muscarinic M2 receptor
# Mus musculus [6] = organism: Mus musculus; experiment: Effect on metacholine-induced bronchoconstriction in mouse assessed as bronchoprotection at 5 ug after 15 mins; type: functional
# Mus musculus [7] = organism: Mus musculus; experiment: Effect on metacholine-induced bronchoconstriction in mouse assessed as bronchoprotection at 5 ug after 5 hrs; type: functional
# Mus musculus [8] = organism: Mus musculus; experiment: Effect on metacholine-induced bronchoconstriction in mouse assessed as bronchoprotection at 5 ug after 24 hrs; type: functional
# Muscarinic acetylcholine receptor M3, sequence (P20309 whole entry): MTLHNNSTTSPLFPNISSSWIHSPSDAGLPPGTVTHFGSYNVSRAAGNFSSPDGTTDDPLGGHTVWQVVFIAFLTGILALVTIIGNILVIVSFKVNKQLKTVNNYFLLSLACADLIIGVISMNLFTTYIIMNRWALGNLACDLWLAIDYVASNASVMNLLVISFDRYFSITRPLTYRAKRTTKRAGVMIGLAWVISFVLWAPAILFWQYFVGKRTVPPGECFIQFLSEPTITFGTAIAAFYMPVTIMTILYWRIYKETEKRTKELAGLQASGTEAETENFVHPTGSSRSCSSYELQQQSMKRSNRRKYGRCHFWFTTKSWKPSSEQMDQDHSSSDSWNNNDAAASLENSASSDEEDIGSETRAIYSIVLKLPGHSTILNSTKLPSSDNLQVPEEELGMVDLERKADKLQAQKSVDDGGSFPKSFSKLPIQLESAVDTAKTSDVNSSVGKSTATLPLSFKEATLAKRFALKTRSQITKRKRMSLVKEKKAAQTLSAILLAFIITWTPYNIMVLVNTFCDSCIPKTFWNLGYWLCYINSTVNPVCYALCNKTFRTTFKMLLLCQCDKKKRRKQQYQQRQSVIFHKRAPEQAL
# Muscarinic acetylcholine receptor M1 and M3 (Homo sapiens), sequence (P20309 whole entry, looked up, one chain of several): as the sequence (P20309 whole entry) above
smiles,measurement,setting,value
C[N+]1(C)[C@@H]2CC[C@H]1C[C@H](OC(=O)N(Cc1ccccc1)c1ccsc1)C2.[Br-],IC50,[1],10.9 nM
same,IC50,[2],2.1 nM
same,IC50,[3],2 nM
same,Ratio IC50,[4],1
same,Ratio IC50,[5],5.5
same,Activity,Mus musculus [6],85%
same,Activity,Mus musculus [7],80%
same,Activity,Mus musculus [8],25%
